Biological target: T1, MtDapE (Mycobacterium tuberculosis, UniProt P9WHS9)
T1 construct: gene dapE
Experiment: inhibition in coupled assay, preincubated with inhibitor, NADPH at […] nm
Type: biochemical
Details: for inhibition at 1000 µM: read-out: % inhibition at 1 mM

T1 sequence (P9WHS9 whole entry, looked up): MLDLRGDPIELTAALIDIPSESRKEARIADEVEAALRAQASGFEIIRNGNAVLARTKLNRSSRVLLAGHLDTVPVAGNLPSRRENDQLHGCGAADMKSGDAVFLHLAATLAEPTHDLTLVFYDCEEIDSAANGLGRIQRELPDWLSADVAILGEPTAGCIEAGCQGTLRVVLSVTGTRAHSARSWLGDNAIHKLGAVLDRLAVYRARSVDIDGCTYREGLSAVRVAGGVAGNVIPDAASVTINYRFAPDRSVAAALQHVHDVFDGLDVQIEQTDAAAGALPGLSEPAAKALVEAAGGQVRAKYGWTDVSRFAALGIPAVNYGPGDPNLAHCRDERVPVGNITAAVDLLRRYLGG

SMILES	inhibition at 10000 µM (read-out: % inhibition at 10 mM)	inhibition at 1000 µM
OB(O)c1cccs1 [2-thiopheneboronic acid]	22.3%	–
C[C@H](CS)C(=O)N1CCC[C@H]1C(=O)O [L-captopril]	–	23.3%
CC(C)(S)[C@H](N)C(=O)O [L-penicillamine]	–	79.4%
